According to article PMC9965614, “Computer-Aided Virtual Screening and In Vitro Validation of Biomimetic Tyrosinase Inhibitory Peptides from Abalone Peptidome” (International Journal of Molecular Sciences, 2023):
Entries after “also recorded” stand apart in the source; their conditions may differ. Where a SMILES comes first, the peptide text is derived from it.

What was measured:
mushroom tyrosinase = mushroom tyrosinase (Agaricus bisporus, UniProt C7FF04); assay: Mushroom tyrosinase activity assay (L-DOPA oxidation, diphenolase); format: biochemical; settings: L-DOPA substrate, up to 500 μM
Chain of mushroom tyrosinase (C7FF04 1-392): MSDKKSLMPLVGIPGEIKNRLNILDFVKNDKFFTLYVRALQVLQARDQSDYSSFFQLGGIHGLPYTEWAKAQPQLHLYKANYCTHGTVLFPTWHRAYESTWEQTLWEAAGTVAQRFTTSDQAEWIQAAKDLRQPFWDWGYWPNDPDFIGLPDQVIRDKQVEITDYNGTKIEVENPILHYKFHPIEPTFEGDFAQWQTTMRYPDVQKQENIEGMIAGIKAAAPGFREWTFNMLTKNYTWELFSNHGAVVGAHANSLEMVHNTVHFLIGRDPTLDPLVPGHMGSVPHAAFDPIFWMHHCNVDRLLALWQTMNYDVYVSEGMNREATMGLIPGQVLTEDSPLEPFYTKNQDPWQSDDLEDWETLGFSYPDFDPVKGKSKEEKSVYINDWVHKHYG
Chain of mushroom tyrosinase (G1K3P4 1-150 partner): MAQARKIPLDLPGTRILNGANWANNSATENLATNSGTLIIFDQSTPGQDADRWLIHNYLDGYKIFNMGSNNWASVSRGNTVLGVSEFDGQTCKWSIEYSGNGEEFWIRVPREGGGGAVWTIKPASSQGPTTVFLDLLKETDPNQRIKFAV
Protocol: The inhibitory effect on mushroom tyrosinase was determined spectrophotometrically via L-DOPA oxidation. The reaction mixture consisted of 20 μL of hdTIPs, 140 μL of 100 mM sodium phosphate buffer (pH6.8) and 40 μL of 200 units/mL mushroom tyrosinase (EC 1.14.18.1; Sigma, Saint Louis, USA) placed in a 96-well microplate, then incubated for 10 min. After that, 20 μL of 5mM L-DOPA were mixed into each well over 20 min. Furthermore, the amount of dopachrome produced absorbance was measured at 475 nm. In addition, KA was used as the positive control at the same concentrations and conditions to hdTIPs. This method was modified from Kim et al..
The mushroom tyrosinase inhibitory activity was calculated with the following equation: % Mushroom tyrosinase inhibition=[(C)−(S)/(C)]×100, where, C represents the OD475 of control and S is the OD475 of sample. All experiments were performed in triplicate to determine the IC50 of the samples.

tyrosinase [1] = settings: KNN machine learning model, 425 sequence features; cited from earlier work
Description: (§1) Table 1 Abalone predicted TIPs by KNN and RF-based predictors and the predicted antioxidant scores by AnOxPePred 1.0 program. | column: Predicted Anti-Tyrosinase Probability / KNN Predictor || Previously, our research team proposed the in-house machine learning-based anti-tyrosinase prediction tool, which provides thousands of potential peptides. The probability scores of all 1079 peptides from KNN-based and RF-based models can be found in the supplementary file of the previous article by Kongsompong et al.. The KNN and RF predictors were trained and tested against 133 peptides with known anti-tyrosinase properties with 97% and 99% accuracy. The predictions of both models were based on the numeric matrix of 425 features calculated from amino acid composition (20 featur ...

tyrosinase [2] = settings: RF machine learning model, 425 sequence features; cited from earlier work
Description: as §1, with “/ RF” for “/ KNN”

B16F10 melanoma cells [3] = assay: Melanin content assay in UV-induced B16F10 cells; format: cell-based, murine; settings: for inhibition of melanin content: 70 μM peptide, UVA/UVB-induced B16F10 cells, triplicate
Protocol: Cellular melanin content was measured using a modified method by Jegal, et al.. B16F10 cells were seeded at 5 × 10^5 cells/mL in 24-well plates. […] After that, the cells in each well were washed and replaced by PBS. The UV stimulation process was performed by the exposure to UVA (314-400 nm, 3.0 W) and UVB (280-315 nm, 13.6 W) for 22 s. Then, PBS was replaced with media and further incubated for 24 h. The UV-stimulated cells were then trypsinized and centrifuged at 1500 rpm for 5 min. The cell pellet was then dissolved in 2 M NaOH at 60 °C for 1 h to solubilize the melanin. The melanin content was estimated by measuring the absorbance at 405 nm. The melanin content was calculated with the following equation: % Melanin content=(S)/(C)×100, where, S is the OD405 of sample and C represents the OD405 of control. All experiments were performed in triplicate.

cellular tyrosinase = molecular target: T1, cellular tyrosinase (Mus musculus, UniProt P11344); assay: Intracellular (cellular) tyrosinase activity assay in UV-induced B16F10 cells; format: cell-based, murine; settings: 70 μM peptide, UVA/UVB-induced B16F10 cells, triplicate
T1 construct: the harvested cells were lysed in cell extraction buffer; endogenous in cells; host or cells: B16F10 murine melanoma cells, UVA/UVB-induced
T1 sequence (P11344 19-533): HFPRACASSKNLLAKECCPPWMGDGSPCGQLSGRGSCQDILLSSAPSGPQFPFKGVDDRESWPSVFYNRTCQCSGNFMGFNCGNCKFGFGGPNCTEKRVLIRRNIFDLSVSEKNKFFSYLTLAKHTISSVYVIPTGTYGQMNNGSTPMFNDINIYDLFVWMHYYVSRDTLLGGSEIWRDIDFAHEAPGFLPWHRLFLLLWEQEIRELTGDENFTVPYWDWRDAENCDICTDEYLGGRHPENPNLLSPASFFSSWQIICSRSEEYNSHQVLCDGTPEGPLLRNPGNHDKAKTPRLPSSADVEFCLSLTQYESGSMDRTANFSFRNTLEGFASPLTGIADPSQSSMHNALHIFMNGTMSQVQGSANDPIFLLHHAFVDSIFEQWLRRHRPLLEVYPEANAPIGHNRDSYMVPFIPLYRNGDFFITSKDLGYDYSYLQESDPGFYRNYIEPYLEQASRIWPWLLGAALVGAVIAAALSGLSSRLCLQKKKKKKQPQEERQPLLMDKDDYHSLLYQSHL
Protocol: Tyrosinase activity was measured based on Dopa oxidase activity by estimating the dopachrome production according to the method by Qiao et al., 2012 [54], with some modifications. B16F10 cells were seeded at 5 × 10^6 cells/mL in 24-well plates. […] Each well was then washed and replaced with PBS 600 μL and induced with UVA (314-400 nm, 3.0 W) and UVB (280-315 nm, 13.6 W) using OSRAM (Ultra-Vitalux, Germany) for 22 s (0.32 J/cm^2). After that, the cells were incubated with medium 600 μL/well for a further 24 h. Then, the cells were trypsinized and the harvested cells were lysed in cell extraction buffer. After normalized protein concentration, 10 μL of each lysate supernatant was aliquoted into a 96-well plate and shaking incubated in dark conditions with 1 mM L-DOPA 90 μL in PBS at 37 °C at 280 rpm for 10 min. The absorbance was measured at 475 nm and all experiments were performed in triplicate to determine the IC50 of the samples. The cellular tyrosinase inhibitory activity was calculated with the following equation: % Cellular tyrosinase inhibition=[(C)-(S)/(C)]×100, where, C are defined as in the previous section.

[4] = system: reactive oxygen species (ROS) level in B16F10 cells; assay: ROS level in B16F10 cells after UV exposure (assay kit); format: cell-based, murine; settings: 70 μM, UV-exposed B16F10 cells, compared to untreated control group
Protocol: (§2) To determine the antioxidant activity, the centrifugation precipitate from Section 4.6 was dissolved in 1 mL of 1 M NaOH containing 10% DMSO at 80 °C for 1 h. Various assay kits, all from Beijing Solarbio Science & Technology Co., Ltd., Beijing, China, were used to measure the quantity of reduced reactive oxygen species (ROS) and the activity of superoxide dismutase (SOD), catalase (CAT), and glutathione peroxidase (GPx) according to the methods by Hu et al..

[5] = system: superoxide dismutase (SOD); assay: Antioxidative enzyme activity, superoxide dismutase (assay kit); format: cell-based, murine; settings: 70 μM, UV-exposed B16F10 cells
Protocol: as §2

catalase (CAT) = assay: Antioxidative enzyme activity, catalase (assay kit); format: cell-based, murine; settings: 70 μM, UV-exposed B16F10 cells
Protocol: as §2

B16F10 melanoma cells [6] = assay: Cell viability assay (MTT assay); format: cell-based, murine; settings: 0–1000 μg/mL, 24 h
Protocol: The number of viable cells was determined by the ability of mitochondria to convert MTT to formazan dye. The quantity of formazan formed is proportional to the number of viable cells present and can be measured spectrophotometrically. The method for MTT assay in this study was modified from Zaidi et al.. […] After 24 h incubation, 1 mg/mL of MTT (Invitrogen, Eugene, USA) solution was replaced prior to incubation at 37 °C for 3 h. The formazan precipitates were dissolved by 100 μL of dimethyl sulfoxide (DMSO) and the concentrations were measured at 570 nm in a microplate reader (Synergy H1, BioTek, Santa Clara USA). Cell viability was calculated using the following formula: cell viability (%) = (Asample/Acontrol) × 100, where Asample and Acontrol are the absorbances from the mixture with or without the addition of test sample, respectively.

CC(C)C[C@H](NC(=O)[C@H](CO)NC(=O)[C@H](CO)NC(=O)[C@@H](N)CC(N)=O)C(=O)N[C@@H](CCCNC(=N)N)C(=O)N[C@H](C(=O)N[C@@H](CCC(N)=O)C(=O)N[C@@H](CO)C(=O)N[C@@H](CCCNC(=N)N)C(=O)O)C(C)C [RF2] (H-NSSLRVQSR-OH; N-terminus and C-terminus assumed)
inhibitory effect on mushroom tyrosinase (diphenolase activity) (mushroom tyrosinase): did not show any inhibition
Predicted Anti-Tyrosinase Probability KNN Predictor (tyrosinase [1]): 0.00
Predicted Anti-Tyrosinase Probability RF Predictor (tyrosinase [2]): 0.60

O=c1cc(CO)occ1O [kojic acid, reference compound]
inhibition at 100 µg/mL (B16F10 melanoma cells [3]; Mus musculus, B16-F10, light or radiation study): 21.1%

CC(C)[C@H](NC(=O)[C@H](CO)NC(=O)[C@H](CCCNC(=N)N)NC(=O)[C@H](CO)NC(=O)[C@H](CC(N)=O)NC(=O)[C@H](CO)NC(=O)[C@H](CCC(N)=O)NC(=O)[C@@H](N)CO)C(=O)N[C@@H](CO)C(=O)N[C@@H](CCCNC(=N)N)C(=O)O [RF3] (H-SQSNSRSVSR-OH; N-terminus and C-terminus assumed)
inhibition of cellular tyrosinase (cellular tyrosinase): 5.11%
inhibition of melanin content (B16F10 melanoma cells [3]): 6.09%
effect on relative percentage of ROS in melanoma cells [4]: significant reductive effects
effect on SOD activity [5]: affected
effect on CAT activity (catalase (CAT)): affected
Predicted Anti-Tyrosinase Probability KNN Predictor (tyrosinase [1]): 0.00
Predicted Anti-Tyrosinase Probability RF Predictor (tyrosinase [2]): 0.52

OC[C@H]1O[C@@H](Oc2ccc(O)cc2)[C@H](O)[C@@H](O)[C@@H]1O [arbutin, reference compound]
effect on cell proliferation of melanoma cells (B16F10 melanoma cells [6]): did not affect the cell proliferation

C[C@H](NC(=O)[C@@H](N)CO)C(=O)N1CCC[C@H]1C(=O)N[C@H](C(=O)N[C@@H](Cc1ccccc1)C(=O)N[C@@H](Cc1ccccc1)C(=O)N[C@@H](CCCNC(=N)N)C(=O)O)[C@@H](C)O [RF1] (H-SAPTFFR-OH; N-terminus and C-terminus assumed)
inhibitory effect on mushroom tyrosinase (diphenolase activity) (mushroom tyrosinase): did not inhibit
inhibition of cellular tyrosinase (cellular tyrosinase): 18.26%
inhibition of melanin content (B16F10 melanoma cells [3]): 10.69%
effect on relative percentage of ROS in melanoma cells [4]: significant reductive effects
Predicted Anti-Tyrosinase Probability KNN Predictor (tyrosinase [1]): 0.00
Predicted Anti-Tyrosinase Probability RF Predictor (tyrosinase [2]): 0.63

CC[C@H](C)[C@H](NC(=O)[C@@H](N)CC(N)=O)C(=O)N[C@@H](CS)C(=O)N[C@@H](CCC(=O)O)C(=O)N[C@@H](CS)C(=O)N[C@@H](CCSC)C(=O)N[C@@H](CCCCN)C(=O)O [KNN1] (H-NICECMK-OH; N-terminus and C-terminus assumed)
inhibition of cellular tyrosinase (cellular tyrosinase): unable to inhibit
inhibition of melanin content (B16F10 melanoma cells [3]): unable to inhibit; also recorded: did not inhibit
Predicted Anti-Tyrosinase Probability KNN Predictor (tyrosinase [1]): 1.00
Predicted Anti-Tyrosinase Probability RF Predictor (tyrosinase [2]): 0.39

CSCC[C@H](NC(=O)[C@H](Cc1ccccc1)NC(=O)[C@@H]1CCCN1C(=O)[C@H](C)NC(=O)[C@@H](N)CO)C(=O)N1CCC[C@H]1C(=O)N[C@@H](CC(=O)O)C(=O)N[C@@H](C)C(=O)N[C@@H](Cc1ccccc1)C(=O)N[C@@H](Cc1ccccc1)C(=O)N[C@@H](CCCNC(=N)N)C(=O)N[C@@H](CC(N)=O)C(=O)N[C@H](C(=O)O)C(C)C [TIP2] (H-SAPFMPDAFFRNV-OH; N-terminus and C-terminus assumed)
inhibition of cellular tyrosinase (cellular tyrosinase): 3.32%
inhibition of melanin content (B16F10 melanoma cells [3]): 6.71%

C[C@H](NC(=O)[C@H](CC(=O)O)NC(=O)[C@H](CO)NC(=O)[C@H](CO)NC(=O)[C@H](C)NC(=O)[C@@H](N)[C@@H](C)O)C(=O)N[C@@H](Cc1c[nH]c2ccccc12)C(=O)N[C@@H](Cc1ccc(O)cc1)C(=O)N[C@@H](CCCNC(=N)N)C(=O)O [TIP1] (H-TASSDAWYR-OH; N-terminus and C-terminus assumed)
effect on relative percentage of ROS in melanoma cells [4]: significant reductive effects

CC(C)[C@H](NC(=O)[C@H](CCCNC(=N)N)NC(=O)[C@H](Cc1ccc(O)cc1)NC(=O)[C@H](CC(N)=O)NC(=O)[C@H](CCCCN)NC(=O)[C@@H](N)CCCCN)C(=O)N[C@@H](CO)C(=O)N[C@@H](CCC(=O)O)C(=O)N[C@@H](C)C(=O)N[C@@H](Cc1ccc(O)cc1)C(=O)N[C@@H](CCCCN)C(=O)O [KNN3] (H-KKNYRVSEAYK-OH; N-terminus and C-terminus assumed)
Predicted Anti-Tyrosinase Probability KNN Predictor (tyrosinase [1]): 1.00
Predicted Anti-Tyrosinase Probability RF Predictor (tyrosinase [2]): 0.32
